Laboratory results reported in patent US9212171B2, “Ethynyl compounds” (Hoffmann-La Roche Inc., priority 2011, dated 2015).

Molecular target: human mGlu5a receptor (Homo sapiens (Human), UniProt P41594)
Test: Intracellular Ca2+ mobilization assay (mGlu5 PAM)
Assay type: cell-based
Conditions: for EC50: HEK-293 cells stably transfected with human mGlu5a, L-glutamate added at EC20 (typically around 80 μM); for Emax / Eff. (%): maximal response in % of the maximal stimulatory effect obtained with saturating concentrations of L-glutamate; for Emax: read-out: Eff. (%)
Experimental: A monoclonal HEK-293 cell line stably transfected with a cDNA encoding for the human mGlu5a receptor was generated; for the work with mGlu5 Positive Allosteric Modulators (PAMs), a cell line with low receptor expression levels and low constitutive receptor activity was selected to allow the differentiation of agonistic versus PAM activity. Cells were cultured according to standard protocols (Freshney, 2000) in Dulbecco's Modified Eagle Medium with high glucose supplemented with 1 mM glutamine, 10% (vol/vol) heat-inactivated bovine calf serum, Penicillin/Streptomycin, […] hygromycin and 15 μg/ml blasticidin (all cell culture reagents and antibiotics from Invitrogen, Basel, Switzerland).
About 24 hrs before an experiment, 5×10^4 cells/well were seeded in poly-D-lysine coated, black/clear-bottomed 96-well plates. The cells were loaded with 2.5 μM Fluo-4AM in loading buffer (1×HBSS, 20 mM HEPES) for 1 hr at 37° C. and washed five times with loading buffer. The cells were transferred into a Functional Drug Screening System 7000 (Hamamatsu, Paris, France), and 11 half logarithmic serial dilutions of test compound at 37° C. were added and the cells were incubated for 10-30 min. with on-line recording of fluorescence. Following this pre-incubation step, the agonist L-glutamate was added to the cells at a concentration corresponding to EC20 (typically around 80 μM) with on-line recording of fluorescence; in order to account for day-to-day variations in the responsiveness of cells, the EC20 of glutamate was determined immediately ahead of each experiment by recording of a full dose-response curve of glutamate.
Responses were measured as peak increase in fluorescence minus basal (i.e. fluorescence without addition of L-glutamate), normalized to the maximal stimulatory effect obtained with saturating concentrations of L-glutamate. Graphs were plotted with the % maximal stimulatory using XLfit, a curve fitting program that iteratively plots the data using Levenburg Marquardt algorithm. The single site competition analysis equation used was y=A+((B−A)/(1+((x/C)D))), where y is the % maximal stimulatory effect, A is the minimum y, B is the maximum y, C is the EC50, x is the log 10 of the concentration of the competing compound and D is the slope of the curve (the Hill Coefficient). From these curves the EC50 (concentration at which half maximal stimulation was achieved), the Hill coefficient as well as the maximal response in % of the maximal stimulatory effect obtained with saturating concentrations of L-glutamate were calculated.
A depression of the signal observed after addition of the EC20 concentration of L-glutamate was indicative of an inhibitory activity of the test compound.

human mGlu5a receptor, sequence (P41594 other isoform, or with tags, fused parts or gaps): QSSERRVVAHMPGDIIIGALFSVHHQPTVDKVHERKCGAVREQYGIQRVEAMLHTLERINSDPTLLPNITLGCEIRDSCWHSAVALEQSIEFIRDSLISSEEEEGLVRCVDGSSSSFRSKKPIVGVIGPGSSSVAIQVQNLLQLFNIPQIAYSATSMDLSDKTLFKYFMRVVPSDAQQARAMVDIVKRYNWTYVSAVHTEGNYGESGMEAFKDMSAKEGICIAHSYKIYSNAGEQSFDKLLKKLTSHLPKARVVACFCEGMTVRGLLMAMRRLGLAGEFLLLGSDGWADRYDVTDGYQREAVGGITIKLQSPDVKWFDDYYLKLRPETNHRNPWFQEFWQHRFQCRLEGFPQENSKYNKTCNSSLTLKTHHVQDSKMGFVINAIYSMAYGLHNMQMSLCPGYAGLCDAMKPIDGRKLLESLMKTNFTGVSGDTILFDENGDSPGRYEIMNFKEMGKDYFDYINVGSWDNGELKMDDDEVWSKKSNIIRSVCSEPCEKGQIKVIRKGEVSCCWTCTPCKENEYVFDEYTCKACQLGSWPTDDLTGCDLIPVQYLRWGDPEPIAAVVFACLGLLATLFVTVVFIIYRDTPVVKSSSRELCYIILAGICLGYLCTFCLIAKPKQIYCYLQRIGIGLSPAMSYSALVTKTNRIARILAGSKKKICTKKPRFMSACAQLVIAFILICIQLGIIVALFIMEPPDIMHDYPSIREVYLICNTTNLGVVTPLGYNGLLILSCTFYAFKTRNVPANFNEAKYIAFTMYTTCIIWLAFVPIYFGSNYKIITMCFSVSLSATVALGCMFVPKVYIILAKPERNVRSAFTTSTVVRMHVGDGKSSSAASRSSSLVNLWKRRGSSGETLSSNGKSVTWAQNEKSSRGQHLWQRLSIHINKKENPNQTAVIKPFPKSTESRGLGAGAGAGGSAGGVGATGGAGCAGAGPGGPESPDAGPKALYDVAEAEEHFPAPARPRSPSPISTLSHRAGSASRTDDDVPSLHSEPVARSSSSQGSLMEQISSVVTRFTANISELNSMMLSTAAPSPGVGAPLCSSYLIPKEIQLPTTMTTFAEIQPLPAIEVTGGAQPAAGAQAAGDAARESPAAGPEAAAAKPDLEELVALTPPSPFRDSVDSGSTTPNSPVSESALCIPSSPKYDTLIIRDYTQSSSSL

CN1C(=O)C(c2ncc(C#Cc3ccccc3)cn2)CC1(C)C (racemic) [Example 6, (RS)-1,5,5-Trimethyl-3-(5-(phenylethynyl)pyrimidin-2-yl)pyrrolidin-2-one]
EC50: 130 nM | Emax: 90%

CN1C(=O)[C@@H](c2ccc(C#Cc3cccc(F)c3)cn2)[C@@H]2CCC[C@@H]21 (single isomer, unassigned) [Example 31, (3R,3aS,6aS) or (3S,3aR,6aR)-3-[5-(3-Fluoro-phenylethynyl)-pyridin-2-yl]-1-methyl-hexahydro-cyclopenta[b]pyrrol-2-one]
EC50: 25 nM | Eff. (%): 51%

CN1C(=O)[C@@H](c2ncc(C#Cc3ccccc3)cn2)[C@@H]2CCC[C@@H]21 (racemic) [Example 33, (3RS,3aSR,6aSR)-1-Methyl-3-(5-phenylethynyl-pyrimidin-2-yl)-hexahydro-cyclopenta[b]pyrrol-2-one]
EC50: 52 nM | Emax: 52%

CN1C(=O)[C@H](c2ccc(C#Cc3cccc(F)c3)cn2)[C@H]2CCCC[C@H]21 [Example 41, (3S,6R,7R)-3-[5-(3-fluoro-phenylethynyl)-pyridin-2-yl]-1-methyl-octahydro-indol-2-one]
EC50: 68 nM | Emax: 56%

CN1C(=O)[C@H](c2ccc(C#Cc3cccc(F)c3)cn2)[C@@H]2CCCC[C@@H]21 (racemic) [Example 39, (3SR,6SR,7SR)-3-[5-(3-Fluoro-phenylethynyl)-pyridin-2-yl]-1-methyl-octahydro-indol-2-one]
EC50: 141 nM | Emax: 61%

CN1CCCCC(c2ccc(C#Cc3ccc(F)cc3)cn2)C1=O (racemic) [Example 23, (RS)-3-[5-(4-Fluoro-phenylethynyl)-pyridin-2-yl]-1-methyl-azepan-2-one]
EC50: 90 nM | Emax: 61%

CN1C(=O)[C@H](c2ccc(C#Cc3cccc(F)c3)cn2)[C@H]2CCC[C@H]21 (single isomer, unassigned) [Example 32, (3S,3aR,6aR) or (3R,3aS,6aS)-3-[5-(3-Fluoro-phenylethynyl)-pyridin-2-yl]-1-methyl-hexahydro-cyclopenta[b]pyrrol-2-one]
EC50: 48 nM | Emax: 68%

CN1C(=O)[C@@H](c2ccc(C#Cc3ccccc3)cn2)[C@@H]2CCC[C@@H]21 (racemic) [Example 27, (3RS,3aSR,6aSR)-1-Methyl-3-(5-phenylethynyl-pyridin-2-yl)-hexahydro-cyclopenta[b]pyrrol-2-one]
EC50: 47 nM | Emax: 53%

CN1C(=O)C(c2ccc(C#Cc3ccccc3)nn2)CC1(C)C (racemic) [Example 11, (RS)-1,5,5-trimethyl-3-(6-(phenylethynyl)pyridazin-3-yl)pyrrolidin-2-one]
EC50: 58 nM | Emax: 115%

CN1C(=O)C(c2ccc(C#Cc3ccc(F)cc3)cn2)CCC1(C)C (racemic) [Example 14, (RS)-3-(5-((4-Fluorophenyl)ethynyl)pyridin-2-yl)-1,6,6-trimethylpiperidin-2-one]
EC50: 212 nM | Emax: 96%

CN1C(=O)C(c2ccc(C#Cc3cccnc3)cn2)CC1(C)C (racemic) [Example 2, (RS)-1,5,5-Trimethyl-3-(5-(pyridin-3-ylethynyl)pyridin-2-yl)pyrrolidin-2-one]
EC50: 981 nM | Emax: 107%

CN1C(=O)C(c2ccc(C#Cc3cccc(F)c3)nn2)CC1(C)C (racemic) [Example 9, (RS)-3-(6-((3-Fluorophenyl)ethynyl)pyridazin-3-yl)-1,5,5-trimethylpyrrolidin-2-one]
EC50: 34 nM | Emax: 88%

CN1C(=O)C(O)(c2ccc(C#Cc3ccccc3)cn2)CC1(C)C (racemic) [Example 18, (RS)-3-Hydroxy-1,5,5-trimethyl-3-(5-(phenylethynyl)pyridin-2-yl)pyrrolidin-2-one]
EC50: 414 nM | Emax: 126%

CN1C(=O)C(c2ccc(C#Cc3cccc(Cl)c3)cn2)CC1(C)C (racemic) [Example 3, (RS)-3-(5-((3-chlorophenyl)ethynyl)pyridin-2-yl)-1,5,5-trimethylpyrrolidin-2-one]
EC50: 38 nM | Emax: 81%

CN1C(=O)[C@H](c2ccc(C#Cc3ccccc3)cn2)[C@@H]2CCCC[C@@H]21 (racemic) [Example 35, (3SR,6SR,7SR)-1-Methyl-3-(5-phenylethynyl-pyridin-2-yl)-octahydro-indol-2-one]
EC50: 101 nM | Emax: 60%

CN1C(=O)[C@@H](c2ccc(C#Cc3ccc(F)cc3)cn2)[C@@H]2CCC[C@@H]21 (racemic) [Example 29, (3RS,3aSR,6aSR)-3-[5-(4-Fluoro-phenylethynyl)-pyridin-2-yl]-1-methyl-hexahydro-cyclopenta[b]pyrrol-2-one]
EC50: 78 nM | Emax: 53%

CN1C(=O)[C@@H](c2ccc(C#Cc3ccnc(Cl)c3)cn2)CC1(C)C (single isomer, unassigned) [Example 45, (S) or (R)-3-[5-(2-Chloro-pyridin-4-ylethynyl)-pyridin-2-yl]-1,5,5-trimethyl-pyrrolidin-2-one]
EC50: 65 nM | Emax: 36%

CN1C(=O)C(c2ncc(C#Cc3ccc(F)cc3)cn2)CC1(C)C (racemic) [Example 8, (RS)-3-(5-((4-Fluorophenyl)ethynyl)pyrimidin-2-yl)-1,5,5-trimethylpyrrolidin-2-one]
EC50: 390 nM | Emax: 105%

CN1CCCC[C@H](c2ccc(C#Cc3ccccc3)cn2)C1=O (single isomer, unassigned) [Example 26, (R or S)-1-Methyl-3-(5-phenylethynyl-pyridin-2-yl)-azepan-2-one]
EC50: 265 nM | Emax: 69%

CN1C(=O)C(c2ncc(C#Cc3ccc(F)cc3)cn2)CCC1(C)C (racemic) [Example 16, (RS)-3-(5-((4-Fluorophenyl)ethynyl)pyrimidin-2-yl)-1,6,6-trimethylpiperidin-2-one]
EC50: 573 nM | Emax: 96%

CN1C(=O)C(c2ncc(C#Cc3ccccc3)cn2)CCC1(C)C (racemic) [Example 15, (RS)-1,6,6-Trimethyl-3-(5-(phenylethynyl)pyrimidin-2-yl)piperidin-2-one]
EC50: 179 nM | Emax: 91%

CN1C(=O)C(c2ccc(C#Cc3ccnc(Cl)c3)cn2)CC1(C)C (racemic) [Example 44, (RS)-3-[5-(2-Chloro-pyridin-4-ylethynyl)-pyridin-2-yl]-1,5,5-trimethyl-pyrrolidin-2-one]
EC50: 88 nM | Emax: 32%

COC1(c2ccc(C#Cc3ccccc3)cn2)CC(C)(C)N(C)C1=O (racemic) [Example 19, (RS)-3-Methoxy-1,5,5-trimethyl-3-(5-(phenylethynyl)pyridin-2-yl)pyrrolidin-2-one]
EC50: 96 nM | Emax: 108%

CN1C(=O)C(C(=O)OCc2ccccc2)(c2ncc(C#Cc3ccccc3)cn2)CC1(C)C (racemic) [Example 5, (RS)-Benzyl 1,5,5-trimethyl-2-oxo-3-(5-(phenylethynyl)pyrimidin-2-yl)pyrrolidine-3-carboxylate]
EC50: 528 nM | Emax: 48%

CN1C(=O)[C@@H](c2ccc(C#Cc3ccccc3)cn2)[C@@H]2CCC[C@@H]21 (single isomer, unassigned) [Example 28, (3R,3aS,6aS) or (3S,3aR,6aR)-1-Methyl-3-(5-phenylethynyl-pyridin-2-yl)-hexahydro-cyclopenta[b]pyrrol-2-one]
EC50: 24 nM | Eff. (%): 58%
